Where two headings read alike, the source gives them in different places.
Tests used:
[1] = Protide stability in normal plasma, rat; assay type: in vitro ADME; details: 37° C.
Protocol: (§1) Selected nucleoside 5′-phosphoramidates were examined for stability in human, cynomolgous monkey, rat and mouse plasma at 37° C. at both 30 min and 90 min time points.
(§2) Protide Stability in Normal Plasma: Plasma samples were prepared for analysis as follows. 50 μl of each test sample were distributed a 96-well V-bottom plate. 200 μl of acetonitrile containing 10 ng/ml of an internal standard was added to each plasma sample. The precipitated samples were centrifuged at 2500 rpm, 4° C. for 20 minutes in a Sorvall RT6000S centrifuge (Thermo Scientific, Waltham Mass.) and 100 μl of supernatant from each sample was transferred into a 96 deep well plate followed by the addition of 100 μl H2O to each sample. Samples were covered, mixed well by vortexing and maintained at 2-8° C. before and during analysis. 15 μl of each test sample was analyzed for protide concentrations by liquid chromatography coupled to tandem mass spectrometry (LC-MS/MS). Liquid chromatography was performed with an Agilent 1100 Series HPLC system equipped with a Synergi 4 μm Polar-RP, 30×2.0 mm column (Phenomenex, Torrance, Calif.). The HPLC system was coupled to an API 4000 triple quadrupole mass spectrometer (Applied Biosystems, Framingham, Mass.). Mass spectrometry was performed in positive ion mode and data was analyzed using Analyst® v1.4.2 software (Applied Biosystems, Framingham, Mass.). Data was presented as the percentage of compound recovered as compared to the 0 time point control.

[2] = Protide stability in normal plasma, mouse; assay type: in vitro ADME; details: 37° C.
Protocol: as §1, §2

[3] = Mouse PK: 2'-C-methylguanosine triphosphate levels in liver; details: 2'-C-methylguanosine triphosphate in mouse liver, 50 mg/kg PO
[4] = Protide stability in normal plasma, cynomolgous monkey; assay type: in vitro ADME; details: 37° C.
Protocol: as §1, §2

[5] = Protide stability in normal plasma, human; assay type: in vitro ADME; details: 37° C.
Protocol: as §1, §2

[6] = system: HCV replicon (Genotype 1b); test: Luciferase genotype 1b replicon potency assay; details: Hepatitis C virus, GETYPE1B, read-out: IC50 μM, HCV genotype 1b luciferase replicon, Renilla luciferase reporter
Huh7 replicon cells = test: Cytotoxicity assay (CellTiter-Glo); details: read-out: CC50 μM; 72 h, CellTiter-Glo
[7] = mouse, in vivo, po, 50 mg/kg; for Cmax / T1/2 / Tmax: female, ICR
in vitro = details: human
[8] = Cytotoxicity assay (CellTiter-Glo); details: human, Huh7 HCV replicon cells (genotype 1b)

| Compound | % Compound Remaining Compared to %100 Acetonitrile Control ([1]; 30 min) | % Compound Remaining Compared to %100 Acetonitrile Control ([1]; 1.5 h) | % Compound Remaining Compared to %100 Acetonitrile Control ([2]; 30 min) | % Compound Remaining Compared to %100 Acetonitrile Control ([2]; 1.5 h) | % Compound Remaining Compared to %100 Acetonitrile Control ([4]; 30 min) | % Compound Remaining Compared to %100 Acetonitrile Control ([4]; 1.5 h) | % Compound Remaining Compared to %100 Acetonitrile Control ([5]; 30 min) | % Compound Remaining Compared to %100 Acetonitrile Control ([5]; 1.5 h) | IC50 [6] | CC50 (in vitro) | CC50 at 72 h [8] | also measured |
| --- | --- | --- | --- | --- | --- | --- | --- | --- | --- | --- | --- | --- |
| C[C@H](NP(=O)(OC[C@H]1OC(n2cnc3c(=O)[nH]c(N)nc32)[C@](C)(O)[C@@H]1O)Oc1cccc2ccccc12)C(=O)OCC(C)(C)C (stereo partly drawn) [A, reference compound] | 0% | 0% | 0% | 0% | 98.5% | 102.4% | 83.2% | 80.8% | – | – | – | AUC0-6 [3]: 1584 ng·h/g |
| CC(C)[C@H](NP(=O)(OC[C@H]1OC(n2cnc3c(=O)[nH]c(N)nc32)[C@](C)(O)[C@@H]1O)Oc1cccc2ccccc12)C(=O)OCC(C)(C)C (stereo partly drawn) [B, reference compound] | 66.7% | 42.0% | 68.3% | 32.3% | 84.5% | 84.9% | 74.7% | 78.1% | – | – | – | – |
| COc1nc(N)nc2c1ncn2[C@@H]1O[C@H](CO)[C@@H](O)[C@@]1(C)O [Example 2, (2R,3R,4R,5R)-2-(2-amino-6-methoxy-9H-purin-9-yl)-5-(hydroxymethyl)-3-methyltetrahydrofuran-3,4-diol] | – | – | – | – | – | – | – | – | 3.1 µM | – | – | AUC0-6 [3]: 8748 ng·h/g; AUC0-24 [3]: 30618 ng·h/g; CC50 (Huh7 replicon cells): > 100 µM; Multiple Above IC90 at Cmax [7]: 25.1 |
| COc1nc(N)nc2c1ncn2C1O[C@H](COP(=O)(N[C@@H](C)C(=O)OCc2ccccc2)Oc2cccc3ccccc23)[C@@H](O)[C@@]1(C)O (stereo partly drawn) [Example 13] | – | – | <3.9% | – | 89.1% | 77.0% | 97.2% | 85.4% | 0.026 µM | 14 µM | – | – |
| COc1nc(N)nc2c1ncn2C1O[C@H](COP(=O)(N[C@H](C(=O)OCc2ccccc2)C(C)C)Oc2cccc3ccccc23)[C@@H](O)[C@@]1(C)O (stereo partly drawn) [Example 36] | 16.9% | 1.4% | 0.4% | 0% | 93.7% | 96% | 70.3% | 74.1% | 0.09 µM | 34 µM | – | Cmax [7]: 1209.7 ng/g; T1/2 [7]: 2.0 h; Tmax [7]: 4.0 h; AUC0-6 [7]: 5055 ng·h/g; AUC0-24 [7]: 6356 ng·h/g |
| COc1nc(N)nc2c1ncn2C1O[C@H](COP(=O)(N[C@H](C(=O)O[C@@H](C)c2ccccc2)C(C)C)Oc2cccc3ccccc23)[C@@H](O)[C@@]1(C)O (stereo partly drawn) [Example 38, (2S)-((S)-1-phenylethyl) 2-((((2R,3R,4R)-5-(2-amino-6-methoxy-9H-purin-9-yl)-3,4-dihydroxy-4-methyltetrahydrofuran-2-yl)methoxy) (naphthalen-1-yloxy)phosphorylamino)-3-methylbutanoate] | – | – | – | – | – | – | – | – | 0.94 µM | 29 µM | – | Cmax [7]: 3130.0 ng/g; T1/2 [7]: 4.3 h; Tmax [7]: 4.0 h; AUC0-6 [7]: 14380 ng·h/g; AUC0-24 [7]: 26837 ng·h/g |
| COc1nc(N)nc2c1ncn2C1O[C@H](COP(=O)(N[C@H](C(=O)OCC(C)(C)C)C(C)C)Oc2cccc3ccccc23)[C@@H](O)[C@@]1(C)O (stereo partly drawn) [Example 42, (2S)-neopentyl 2-((((2R,3R,4R)-5-(2-amino-6-methoxy-9H-purin-9-yl)-3,4-dihydroxy-4-methyltetrahydrofuran-2-yl)methoxy)(naphthalen-1-yloxy)phosphorylamino)-3-methylbutanoate] | 50.0% | 37.0% | 66.5% | 45.5% | 87.0% | 82.5% | 88.5% | 82.5% | 0.21 µM | 30 µM | – | AUC0-6 [3]: 1540 ng·h/g |
| COc1nc(N)nc2c1ncn2C1O[C@H](COP(=O)(N[C@H](C(=O)OC2CCOCC2)C(C)C)Oc2cccc3ccccc23)[C@@H](O)[C@@]1(C)O (stereo partly drawn) [Example 47, (2S)-tetrahydro-2H-pyran-4-yl 2-((((2R,3R,4R)-5-(2-amino-6-methoxy-9H-purin-9-yl)-3,4-dihydroxy-4-methyltetrahydrofuran-2-yl)methoxy)(naphthalen-1-yloxy)phosphorylamino)-3-methylbutanoate] | 71.3% | 57.3% | 74.3% | 67.4% | 112.5% | 118.5% | 105.1% | 129.5% | 0.18 µM | > 100 µM | – | – |
| COc1nc(N)nc2c1ncn2C1O[C@H](COP(=O)(N[C@H](C(=O)OCC(C)(C)C)C(C)C)Oc2c(C)ccc3ccccc23)[C@@H](O)[C@@]1(C)O (stereo partly drawn) [Example 54] | 60.6% | 58.4% | 60.7% | 45.7% | 119.3% | 124.2% | 80.4% | 93.5% | 1.5 µM | 23 µM | – | – |
| CCOc1nc(N)nc2c1ncn2C1O[C@H](CO)[C@@H](O)[C@@]1(C)O (stereo partly drawn) [Example 72, (3R,4R,5R)-2-(2-amino-6-ethoxy-9H-purin-9-yl)-5-(hydroxymethyl)-3-methyltetrahydrofuran-3,4-diol] | – | – | – | – | – | – | – | – | 11 µM | – | > 100 µM | – |
| CNc1nc(N)nc2c1ncn2C1O[C@H](CO)[C@@H](O)[C@@]1(C)O (stereo partly drawn) [Example 80, (3R,4R,5R)-2-(2-amino-6-(methylamino)-9H-purin-9-yl)-5-(hydroxymethyl)-3-methyltetrahydrofuran-3,4-diol] | – | – | – | – | – | – | – | – | 13 µM | – | > 100 µM | – |
| C[C@@]1(O)[C@H](O)[C@@H](CO)O[C@H]1n1cnc2c(NCc3ccccc3)nc(N)nc21 [Example 84, (3R,4R,5R)-2-(2-amino-6-(benzylamino)-9H-purin-9-yl)-5-(hydroxymethyl)-3-methyltetrahydrofuran-3,4-diol] | – | – | – | – | – | – | – | – | 27 µM | – | > 100 µM | – |
| CSc1nc(N)nc2c1ncn2[C@@H]1O[C@H](CO)[C@@H](O)[C@@]1(C)O [Example 88, (2R,3R,4R,5R)-2-(2-amino-6-(methylthio)-9H-purin-9-yl)-5-(hydroxymethyl)-3-methyltetrahydrofuran-3,4-diol] | – | – | – | – | – | – | – | – | 11 µM | – | 150 µM | – |
| COc1nc(NCc2ccc(F)cc2)nc2c1ncn2[C@@H]1O[C@H](CO)[C@@H](O)[C@@]1(C)O [Example 92, (2R,3R,4R,5R)-2-(2-(4-fluorobenzylamino)-6-methoxy-9H-purin-9-yl)-5-(hydroxymethyl)-3-methyltetrahydrofuran-3,4-diol] | – | – | – | – | – | – | – | – | > 40 µM | – | > 100 µM | – |
| COc1nc(N)nc2c1ncn2C1O[C@H](CO)C[C@@]1(C)O (stereo partly drawn) [Example 94, (3R,5S)-2-(2-amino-6-methoxy-9H-purin-9-yl)-5-(hydroxymethyl)-3-methyl-tetrahydrofuran-3-ol] | – | – | – | – | – | – | – | – | > 100 µM | – | > 100 µM | – |
| C[C@H](NP(=O)(OC[C@H]1OC(n2cnc3c(=O)[nH]c(N)nc32)[C@](C)(O)[C@@H]1O)Oc1cccc2ccccc12)C(=O)O[C@@H](C)c1ccccc1 (stereo partly drawn) [G, reference compound] | – | – | – | – | – | – | – | – | – | – | – | AUC0-6 [3]: 6977 ng·h/g |
| CC(C)[C@H](NP(=O)(OC[C@H]1OC(n2cnc3c(=O)[nH]c(N)nc32)[C@](C)(O)[C@@H]1O)Oc1cccc2ccccc12)C(=O)OCc1ccccc1 (stereo partly drawn) [M, reference compound] | – | – | – | – | – | – | – | – | – | – | – | AUC0-6 [3]: 1937 ng·h/g |

From US8759318B2, “Phosphoramidate derivatives of guanosine nucleoside compounds for treatment of viral infections” (Inhibitex, Inc., priority 2009, dated 2014)
